Laboratory results from patent US12378221B2, “Salts of obicetrapib and processes for their manufacture and intermediates thereof” (NewAmsterdam Pharma B.V., priority 2022, dated 2025).
Where a name gives a salt, the structure may show the parent alone.

What was measured:
[1] = Physical stability at 70° C./75% relative humidity, by XRPD; format: physicochemical
Source text: FIG. 6 is a plot of x-ray powder diffraction pattern taken of crystalline obicetrapib hemicalcium, and FIG. 7 is a plot of x-ray powder diffraction patterns taken of crystalline obicetrapib hemicalcium under stress conditions. In FIG. 7, there are four diffraction patterns shown based on stability study set forth in Example 27. Pattern 1 is an x-ray powder diffraction pattern of a sample of amorphous obicetrapib hemicalcium. Pattern 2 is the x-ray powder diffraction pattern of a sample of crystalline obicetrapib hemicalcium. In pattern 3, the sample of crystalline obicetrapib hemicalcium was exposed to 70° C. at 75% relative humidity for one day. […] was taken before the sample was placed on stability.
XRPD was performed with Panalytical X'Pert^3 Powder diffractometer using an incident beam of Cu radiation produced using an Empyran tube, fine focused source, on a silicon zero-background holder. […] Approximately 5 to 10 mg of sample was placed on a silicon zero-background holder and flattened manually using an aluminum spatula to minimize difference in the overall sample height. The holder was then loaded on the instrument for analysis. The XRPD parameters used are listed in Table 10.
Stability study was conducted on crystalline and amorphous forms of obicetrapib at 70° C./75% relative humidity (RH). The solids were placed into a 4.0 ml glass vial without caps (open condition) and stored at 70° C./75% RH. […] The solids were analyzed by XRPD for physical stability and by HPLC for chemical purity. The sample collected at each time point was dissolved in methanol before HPLC analysis. In order to minimize the effect of potential analyte adsorption on the filter, the initial 0.5 mL of supernatant passing through the filter was discarded prior to collecting sample for HPLC analysis. Purity for each sample was determined based on peak area percent and compared to the sample at T=0.

[2] = Moisture uptake / hygroscopicity; format: physicochemical
Source text: When exposed to relative humidities approaching 90%, moisture uptake has been measured to be typically less than about 5% for example. […] Other drawbacks commonly associated with manufacturing and using amorphous materials are similarly not present. For example, amorphous materials are often challenging to make chemically pure.

[3] = Loss of crystallinity on drying, by XRPD (FIG. 18); format: physicochemical; conditions: 48 hours at 55° C. at a pressure of 2 mbar
Description: Upon stress, crystalline obicetrapib HCl loses its crystallinity. In FIG. 18, pattern 2 reflects crystalline obicetrapib HCl subject to a mild drying treatment whereby surface solvent was removed and it can be seen that this compound is crystalline. By comparison, the sample whose x-ray powder diffraction was measured in pattern 1 was subject to a stronger drying treatment at 48 hours at 55° C. at a pressure of 2 mbar. […] The amorphous pattern, therefore, represents HCl obicetrapib which is not crystalline obicetrapib. It may be obicetrapib, but is believed to have HCl associated with the obicetrapib as a solvate and thus is HCl obicetrapib, but with a lower chloride content than typically found in the ranges found for crystalline obicetrapib HCl. In some embodiments, that chloride content is less than 0.1% by weight such as between about 0.01% and 0.1% by weight.
Diffraction patterns were measured using a Thermo Fisher Scientific ARL Equinox 1000 powder diffractometer. The diffractometer is equipped with a copper source and a germanium (111) monochromator providing monochromatic Cu Kα1 radiation, and a position sensitive gas-ionization detector.
Samples were measured in reflection mode using an A1 sample holder without any further preparation (i.e., grinding). […]

[4] = clinical studies; cited from earlier work
[5] = target: T1, Cholesterol Ester Transfer Protein (CETP) (Homo sapiens, UniProt P11597); conditions: repeated daily dosages (once a day) as low as 2.5 mg; cited from earlier work
T1 construct: CETP is a plasma protein secreted primarily by liver and adipose tissue; host or cells: endogenous plasma CETP of dosed clinical-study subjects
T1 sequence (P11597 18-493): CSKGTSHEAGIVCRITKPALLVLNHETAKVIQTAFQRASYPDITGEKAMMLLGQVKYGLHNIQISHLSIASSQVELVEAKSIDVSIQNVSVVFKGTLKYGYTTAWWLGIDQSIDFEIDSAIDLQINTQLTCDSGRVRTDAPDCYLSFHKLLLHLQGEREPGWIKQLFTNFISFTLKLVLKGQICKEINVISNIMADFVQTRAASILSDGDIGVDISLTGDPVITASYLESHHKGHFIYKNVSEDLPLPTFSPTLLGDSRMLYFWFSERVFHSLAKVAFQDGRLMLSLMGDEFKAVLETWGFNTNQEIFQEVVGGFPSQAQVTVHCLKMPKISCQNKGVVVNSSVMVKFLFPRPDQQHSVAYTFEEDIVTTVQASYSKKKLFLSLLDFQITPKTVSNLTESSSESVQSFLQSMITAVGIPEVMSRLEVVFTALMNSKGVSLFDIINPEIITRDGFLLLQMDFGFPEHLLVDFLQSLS

[6] = Solubility in water at 20° C.; format: physicochemical
Source text: Solubility is especially challenging with obicetrapib. […] It would be desirable to have a solid form of obicetrapib that would deliver a larger amount of obicetrapib.

CCOC(=O)N1c2ccc(C(F)(F)F)cc2[C@@H](N(Cc2cc(C(F)(F)F)cc(C(F)(F)F)c2)c2ncc(OCCCC(=O)O)cn2)C[C@H]1CC [Amorphous obicetrapib hemicalcium]
physical stability of solid form (XRPD) ([1]; 7 days, open vial): remained amorphous
physical stability of solid form (XRPD) ([1]; 14 days): remained amorphous

CCOC(=O)N1c2ccc(C(F)(F)F)cc2[C@@H](N(Cc2cc(C(F)(F)F)cc(C(F)(F)F)c2)c2ncc(OCCCC(=O)[O-])cn2)C[C@H]1CC.CCOC(=O)N1c2ccc(C(F)(F)F)cc2[C@@H](N(Cc2cc(C(F)(F)F)cc(C(F)(F)F)c2)c2ncc(OCCCC(=O)[O-])cn2)C[C@H]1CC.[Ca+2] [Crystalline obicetrapib hemicalcium, reference compound]
physical stability of solid form (XRPD) ([1]; 7 days, open vial): the result remains the same
physical stability of solid form (XRPD) ([1]; one day, open vial): near total loss of crystallinity

CCOC(=O)N1c2ccc(C(F)(F)F)cc2[C@@H](N(Cc2cc(C(F)(F)F)cc(C(F)(F)F)c2)c2ncc(OCCCC(=O)O)cn2)C[C@H]1CC [crystalline obicetrapib HCl, (2R,4S)-4-{[3,5-bis(trifluoromethyl)benzyl]-[5-(3-carboxypropoxy)pyrimidin-2-yl]amino}-2-ethyl-6-trifluoromethyl-3,4-dihydro-2H-quinoline-1-carboxylic acid ethyl ester hydrochloride]
hygroscopicity [2]: hygroscopic
solid form after drying (XRPD) [3]: changed the material from crystalline to amorphous

CCOC(=O)N1c2ccc(C(F)(F)F)cc2[C@@H](N(Cc2cc(C(F)(F)F)cc(C(F)(F)F)c2)c2ncc(OCCCC(=O)O)cn2)C[C@H]1CC [obicetrapib, (2R,4S)-4-{[3,5 bis(trifluoromethyl)benzyl]-[5-(3-carboxypropoxy)pyrimidin-2-yl]amino}-2-ethyl-6-trifluoromethyl-3,4-dihydro-2H-quinoline-1-carboxylic acid ethyl ester]
serious side effects [4]: does not lead to serious side effects
CETP inhibition [5]: near complete CETP inhibition
solubility in water [6]: less than 0.1 mg/mL
